The target of test [1] is human full-lengt MKNK1 (GST fusion, T344D) (Homo sapiens (Human), UniProt Q9BUB5, T344D). Nature of the test: MKNK1 kinase assay (TR-FRET, 10 μM ATP). Type of test: biochemical. Conditions: 15 min preincubation. The protocol: MKNK1-inhibitory activity of compounds of the present invention was quantified employing the MKNK1 TR-FRET assay as described in the following paragraphs.
As substrate for the kinase reaction the biotinylated peptide biotin-Ahx-[…] (C-terminus in amide form) was used which can be purchased e.g. form the company Biosyntan (Berlin-Buch, Germany).
For the assay 50 nL of a 100 fold concentrated solution of the test compound in DMSO was pipetted into a black low volume 384 well microtiter plate (Greiner Bio-One, Frickenhausen, Germany), 2 μL of a solution of MKNK1 in aqueous assay buffer [50 mM HEPES pH 7.5, 5 mM magnesium chloride, 1.0 mM dithiothreitol, 0.005% (v/v) Nonidet-P40 (Sigma)] was added and the mixture was incubated for 15 min at 22° C. to allow pre-binding of the test compounds to the enzyme before the start of the kinase reaction. […] The concentration of MKNK1 was adjusted depending of the activity of the enzyme lot and was chosen appropriate to have the assay in the linear range, typical concentrations were in the range of 0.05 μg/ml. The reaction was stopped by the addition of 5 μL of a solution of TR-FRET detection reagents (5 nM streptavidine-XL665 [Cisbio Bioassays, Codolet, France] and 1 nM anti-ribosomal protein S6 (pSer236)-antibody from Invitrogen [#44921G] and 1 nM LANCE EU-W1024 labeled ProteinG [Perkin-Elmer, product no. AD0071]) in an aqueous EDTA-solution (100 mM EDTA, 0.1% (w/v) bovine serum albumin in 50 mM HEPES pH 7.5).
(§1) The resulting mixture was incubated for 1 h at 22° C. to allow the formation of complex between the phosphorylated biotinylated peptide and the detection reagents. Subsequently the amount of phosphorylated substrate was evaluated by measurement of the resonance energy transfer from the Eu-chelate to the streptavidine-XL. Therefore, the fluorescence emissions at 620 nm and 665 nm after excitation at 350 nm were measured in a TR-FRET reader, e.g. a Rubystar (BMG Labtechnologies, Offenburg, Germany) or a Viewlux (Perkin-Elmer). The ratio of the emissions at 665 nm and at 622 nm was taken as the measure for the amount of phosphorylated substrate.
For orientation: Time-resolved FRET reads energy transfer from a long-lived donor to a nearby acceptor.

Test [2] concerns the target human full-length MKNK1 (GST fusion, T344D) (Homo sapiens (Human), UniProt Q9BUB5, T344D). The test can be described thus: MKNK1 kinase high ATP assay (TR-FRET, 2 mM ATP). Type of test: biochemical. Conditions: 15 min preincubation. The protocol: MKNK1 Kinase High ATP Assay
MKNK1-inhibitory activity at high ATP of compounds of the present invention after their preincubation with MKNK1 was quantified employing the TR-FRET-based MKNK1 high ATP assay as described in the following paragraphs.
As substrate for the kinase reaction the biotinylated peptide biotin-Ahx-[…] (C-terminus in amide form) was used, which can be purchased e.g. from the company Biosyntan (Berlin-Buch, Germany).
For the assay 50 nL of a 100 fold concentrated solution of the test compound in DMSO was pipetted into a black low volume 384 well microtiter plate (Greiner Bio-One, Frickenhausen, Germany), 2 μL of a solution of MKNK1 in aqueous assay buffer [50 mM HEPES pH 7.5, 5 mM magnesium chloride, 1.0 mM dithiothreitol, 0.005% (v/v) Nonidet-P40 (Sigma)] was added and the mixture was incubated for 15 min at 22° C. to allow pre-binding of the test compounds to the enzyme before the start of the kinase reaction. Then the kinase reaction was started by the addition of 3 μL of a solution of adenosine-tri-phosphate (ATP, 3.3 mM=>final conc. in the 5 μL assay volume is 2 mM) and substrate (0.1 μM=>final conc. in the 5 μL assay volume is 0.06 μM) in assay buffer and the resulting mixture was incubated for a reaction time of 30 min at 22° C. The concentration of MKNK1 was adjusted depending of the activity of the enzyme lot and was chosen appropriate to have the assay in the linear range, typical concentrations were in the range of 0.003 μg/mL. The reaction was stopped by the addition of 5 μL of a solution of TR-FRET detection reagents (5 nM streptavidine-XL665 [Cisbio Bioassays, Codolet, France] and 1 nM anti-ribosomal protein S6 (pSer236)-antibody from Invitrogen [#44921G] and 1 nM LANCE EU-W1024 labeled ProteinG [Perkin-Elmer, product no. AD0071]) in an aqueous EDTA-solution (100 mM EDTA, 0.1% (w/v) bovine serum albumin in 50 mM HEPES pH 7.5).
as §1

In general, pIC50 refers to the negative decadic logarithm of the IC50, by convention in mol/L. A higher pIC50 goes with a low IC50.

pIC50: −log10 of the molar value.

Chain of human full-length MKNK1 (GST fusion, T344D) (Q9BUB5 other isoform, or with tags, fused parts or gaps T344D): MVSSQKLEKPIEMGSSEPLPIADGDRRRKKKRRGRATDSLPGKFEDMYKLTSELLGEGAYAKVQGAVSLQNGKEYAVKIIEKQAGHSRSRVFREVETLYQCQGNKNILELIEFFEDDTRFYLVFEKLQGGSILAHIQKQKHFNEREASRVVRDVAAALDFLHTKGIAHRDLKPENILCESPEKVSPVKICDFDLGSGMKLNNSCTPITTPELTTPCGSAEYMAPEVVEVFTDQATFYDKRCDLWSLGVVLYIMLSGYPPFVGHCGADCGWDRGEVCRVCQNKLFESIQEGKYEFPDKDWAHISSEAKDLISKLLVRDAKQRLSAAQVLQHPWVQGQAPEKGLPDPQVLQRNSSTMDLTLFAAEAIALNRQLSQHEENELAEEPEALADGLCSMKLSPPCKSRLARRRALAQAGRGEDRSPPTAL
Chain of human full-lengt MKNK1 (GST fusion, T344D) (Q9BUB5 other isoform, or with tags, fused parts or gaps T344D): as above

With `O=C(Cc1ccccc1)Nc1ccc2ncc(-c3cc4ccccc4o3)n2n1` [Example 1, N-[3-(1-Benzofuran-2-yl)imidazo[1,2-b]pyridazin-6-yl]-2-phenylacetamide], the values for the pIC50 in test [1] and in test [2] were 8.10 and 7.74, respectively.
As to `O=C(Nc1ccc2ncc(-c3cc4ccccc4o3)n2n1)C(O)c1ccccc1` (stereo not drawn) [Example 2, N-[3-(1-Benzofuran-2-yl)imidazo[1,2-b]pyridazin-6-yl]-2-hydroxy-2-phenylacetamide], the pIC50 in test [1] was 8.15; in test [2], 7.74.
Consider `O=C(Nc1ccc2ncc(-c3cc4ccccc4o3)n2n1)C(O)c1cccnc1` (stereo not drawn) [Example 3, N-[3-(1-Benzofuran-2-yl)imidazo[1,2-b]pyridazin-6-yl]-2-hydroxy-2-(pyridin-3-yl)acetamide], for which the pIC50 was 8.52 in test [1] and 7.96 in test [2].
Take `O=C(Nc1ccc2ncc(-c3cc4ccccc4o3)n2n1)C(O)C1CCCCC1` (stereo not drawn) [Example 4, N-[3-(1-Benzofuran-2-yl)imidazo[1,2-b]pyridazin-6-yl]-2-cyclohexyl-2-hydroxyacetamide]: the results for the negative-log IC50 (pIC50) in test [1] and in test [2] were 8.15 and 8.00, respectively.
For the compound `O=C(Cc1ccccn1)Nc1ccc2ncc(-c3cc4ccccc4o3)n2n1` [Example 6, N-[3-(1-Benzofuran-2-yl)imidazo[1,2-b]pyridazin-6-yl]-2-(pyridin-2-yl)acetamide], the pIC50 in test [1] was 8.15; in test [2], 7.92.
For the compound `O=C(Cc1cccc(F)c1)Nc1ccc2ncc(-c3cc4ccccc4o3)n2n1` [Example 8, N-[3-(1-Benzofuran-2-yl)imidazo[1,2-b]pyridazin-6-yl]-2-(3-fluorophenyl)-acetamide], the pIC50 is 8.00 in test [1] and 7.64 in test [2].
Regarding `O=C(CCc1cccnc1)Nc1ccc2ncc(-c3cc4ccccc4o3)n2n1` [Example 9, N-[3-(1-Benzofuran-2-yl)imidazo[1,2-b]pyridazin-6-yl]-3-(pyridin-3-yl)propanamide], the pIC50 is 8.52 in test [1] and 8.15 in test [2].
In the case of `O=C(Nc1ccc2ncc(-c3cc4ccccc4o3)n2n1)c1cc(=O)[nH]c(=O)[nH]1` [Example 10, N-[3-(1-Benzofuran-2-yl)imidazo[1,2-b]pyridazin-6-yl]-2,6-dioxo-1,2,3,6-tetrahydropyrimidine-4-carboxamide], the pIC50 in test [1] and in test [2] was 7.44 throughout.
On to `O=C1CC[C@@H](CO)N1c1ccc2ncc(-c3cc4ccccc4o3)n2n1` [Example 11, (5S)-1-[3-(1-Benzofuran-2-yl)imidazo[1,2-b]pyridazin-6-yl]-5-(hydroxymethyl)-pyrrolidin-2-one], for which the pIC50 in test [1] was 8.52; in test [2], 8.15.
In the case of `C[C@@H](O)C(=O)Nc1ccc2ncc(-c3cc4ccccc4o3)n2n1` [Example 13, (2R)—N-[3-(1-Benzofuran-2-yl)imidazo[1,2-b]pyridazin-6-yl]-2-hydroxypropanamide], the pIC50 was 8.40 in test [1] and 7.92 in test [2].
The matching figures for `C[C@H](O)C(=O)Nc1ccc2ncc(-c3cc4ccccc4o3)n2n1` [Example 14, (2S)—N-[3-(1-Benzofuran-2-yl)imidazo[1,2-b]pyridazin-6-yl]-2-hydroxypropanamide]: 8.10 and 7.70.
Turning to `COc1nccc2oc(-c3cnc4ccc(NC(=O)[C@@H](C)O)nn34)cc12` [Example 15, (2R)-2-hydroxy-N-[3-(4-methoxyfuro[3,2-c]pyridin-2-yl)imidazo[1,2-b]-pyridazin-6-yl]propanamide], the values for the pIC50 in test [1] and in test [2] were 8.52 and 8.15, respectively.
The matching figures for `COc1nccc2oc(-c3cnc4ccc(NC(=O)[C@H](C)O)nn34)cc12` [Example 16, (2S)-2-hydroxy-N-[3-(4-methoxyfuro[3,2-c]pyridin-2-yl)imidazo[1,2-b]pyridazin-6-yl]propanamide]: 8.00 and 7.89.
`CC(C)CC(=O)Nc1ccc2ncc(-c3cc4ccccc4o3)n2n1` [Example 17, N-[3-(1-Benzofuran-2-yl)imidazo[1,2-b]pyridazin-6-yl]-3-methylbutanamide]: the pIC50 was 8.40 in test [1] and 8.15 in test [2].
`O=C(CCc1c[nH]cn1)Nc1ccc2ncc(-c3cc4ccccc4o3)n2n1` [Example 19, N-[3-(1-Benzofuran-2-yl)imidazo[1,2-b]pyridazin-6-yl]-3-(1H-imidazol-4-yl)-propanamide]: the pIC50 in test [1] was 8.10; in test [2], 8.22.
For the compound `N#Cc1cccc(CC(=O)Nc2ccc3ncc(-c4cc5ccccc5o4)n3n2)c1` [Example 21, N-[3-(1-benzofuran-2-yl)imidazo[1,2-b]pyridazin-6-yl]-2-(3-cyanophenyl)acetamide], the pIC50 in test [1] was 7.85; in test [2], 7.96.
For `O=C(CCC1CC1)Nc1ccc2ncc(-c3cc4ccccc4o3)n2n1` [Example 22, N-[3-(1-benzofuran-2-yl)imidazo[1,2-b]pyridazin-6-yl]-3-cyclopropylpropanamide] the same measures were 7.89 and 7.64.
Regarding `CCN(CC)CCC(=O)Nc1ccc2ncc(-c3cc4ccccc4o3)n2n1` [Example 23, N-[3-(1-benzofuran-2-yl)imidazo[1,2-b]pyridazin-6-yl]-N^3,N^3-diethyl-β-alaninamide], the figures for the pIC50 in test [1] and in test [2] were 8.05 and 7.89, respectively.
Turning to `N#CC1(C(=O)Nc2ccc3ncc(-c4cc5ccccc5o4)n3n2)CC1` [Example 24, N-[3-(1-benzofuran-2-yl)imidazo[1,2-b]pyridazin-6-yl]-1-cyanocyclopropane carboxamide], the pIC50 is 7.60 in test [1] and 7.44 in test [2].
The matching figures for `Cc1cccc(CCC(=O)Nc2ccc3ncc(-c4cc5ccccc5o4)n3n2)c1` [Example 31, N-[3-(1-benzofuran-2-yl)imidazo[1,2-b]pyridazin-6-yl]-3-(3-methylphenyl)propanamide]: 7.17 and 7.21.
Turning to `CC1CCN(CC(=O)Nc2ccc3ncc(-c4cc5ccccc5o4)n3n2)CC1` [Example 32, N-[3-(1-benzofuran-2-yl)imidazo[1,2-b]pyridazin-6-yl]-2-(4-methylpiperidin-1-yl)acetamide], the figures for the pIC50 in test [1] and in test [2] were 7.77 and 7.74, respectively.
